system: MHC-I expression by COLO 205 cells; assay: cells; type: cell-based, human; conditions: not given
Description: A panel of synthetic cannabinoids (Cayman Chemical, #9002891) was tested for MHC class I-inducing capability in COLO 205 cells as described above. COLO 205 cells were treated with the compounds at a concentration of 35 μM and evaluated for cell surface MHC class I expression after 48 hours. Cells were harvested, stained with MHC-I mAb W6/32 (Thermo Fisher). MHC-I expression was determined by flow cytometry.

Row | Compound | Induction Fold [Fold]
1 | [1-(5-fluoropentyl)-6-nitro-1H-indol-3-yl]-1-naphthalenyl-methanone [Example 280] | 1.49
2 | CCCCCn1ccc(C(=O)c2cccc3ccccc23)c1 [Example 66, 1-naphthalenyl(1-pentyl-1H-pyrrol-3-yl)-methanone] | 2.75
3 | CCCCn1c(C)c(C(=O)c2cccc3ccccc23)c2ccccc21 [Example 122, (1-butyl-2-methyl-1H-indol-3-yl)-1-naphthalenyl-methanone] | 2.31
4 | CS(=O)(=O)O.Cc1c(C(=O)c2cccc3ccccc23)c2cccc3c2n1[C@H](CN1CCOCC1)CO3 [Example 379, [(3R)-2,3-dihydro-5-methyl-3-(4-morpholinylmethyl)pyrrolo[1,2,3-de]-1,4-benzoxazin-6-yl]-1-naphthalenyl-methanone, methanesulfonate] | 0.21
5 | CCCCCCn1cccc1C(=O)c1cccc2ccccc12 [Example 202, (1-hexyl-1H-pyrrol-2-yl)-1-naphthalenyl-methanone] | 1.87

same assay, conditions: Homo sapiens, COLO 205, 48 h, MHC-I expression, COLO 205 cells, compounds at 35 μM, 48 hours, flow cytometry (W6/32); read-out: Induction Fold

Row | Compound | fold induction at 35 µM
6 | Cc1ccc(C(=O)c2cn(CCCC(C)F)c3ccccc23)c2ccccc12 (centres unmarked) [Example 145, (1-(4-fluoropentyl)-1H-indol-3-yl)(4-methylnaphthalen-1-yl)methanone] | 2.16
7 | CCCCCn1cccc1C(=O)c1cccc2ccccc12 [Example 178, naphthalen-1-yl(1-pentyl-1H-pyrrol-2-yl)methanone] | 1.94
8 | O=C(Oc1cnc2ccccc2c1)c1cn(CCCCCF)c2ccccc12 [Example 136, quinolin-3-yl 1-(5-fluoropentyl)-1H-indole-3-carboxylate] | 2.22
9 | CCCCCn1cc(C(=O)c2cccc3ccc(C)cc23)c2ccccc21 [Example 161, (7-methyl-1-naphthalenyl)(1-pentyl-1H-indol-3-yl)-methanone] | 2.06
10 | COc1cccc2c(C(=O)N3CCN(C)C(C)C3)cn(CC3CCCCC3)c12 (racemic) [Example 277, [1-(cyclohexylmethyl)-7-methoxy-1H-indol-3-yl](3,4-dimethyl-1-piperazinyl)-methanone] | 1.5
11 | CC(Cl)CCCn1cc(C(=O)C2C(C)(C)C2(C)C)c2ccccc21 (centres unmarked) [Example 113, (1-(4-chloropentyl)-1H-indol-3-yl)(2,2,3,3-tetramethylcyclopropyl)methanone] | 2.36
12 | O=C(Oc1ccc2ccccc2c1)c1nn(-c2ccccc2F)c2ccccc12 [Example 332, naphthalen-2-yl 1-(2-fluorophenyl)-1H-indazole-3-carboxylate] | 1.21
13 | CCC(C)Cn1cc(C(=O)c2cccc3ccccc23)c2ccccc21 (centres unmarked) [Example 58, N-(2-methylbutyl)-3-(1-naphthoyl)-indole] | 2.86
14 | CCC(Cl)CCn1cc(C(=O)C2C(C)(C)C2(C)C)c2ccccc21 (centres unmarked) [Example 37] | 3.3
15 | COC(=O)[C@@H](NC(=O)c1nn(CC2CCCCC2)c2ccccc12)C(C)C [Example 14, N-[[1-(cyclohexylmethyl)-1H-indazol-3-yl]carbonyl]-L-valine, methyl ester] | 4.2
16 | CN(C)C(=O)n1nnc(Cc2ccc(-c3ccccc3)cc2)n1 [Example 278, 5-([1,1′-biphenyl]-4-ylmethyl)-N,N-dimethyl-2H-tetrazole-2-carboxamide] | 1.49
17 | CCCCCn1cc(C(=O)c2ccc(F)c3ccccc23)c2ccccc21 [Example 150, (4-fluoro-1-naphthalenyl)(1-pentyl-1H-indol-3-yl)-methanone] | 2.14
18 | CC1(C)C(C(=O)c2cn(CC3CCOCC3)c3ccccc23)C1(C)C [Example 260, [1-[(tetrahydro-2H-pyran-4-yl)methyl]-1H-indol-3-yl](2,2,3,3-tetramethylcyclopropyl)-methanone] | 1.57
19 | CC(C)[C@H](NC(=O)c1cn(CCCCCF)c2ccccc12)C(N)=O [Example 312, N-[(1S)-1-(aminocarbonyl)-2-methylpropyl]-1-(5-fluoropentyl)-1H-indole-3-carboxamide] | 1.35
20 | O=C(NC12CC3CC(CC(C3)C1)C2)c1cn(CCCCCF)c2ccccc12 [Example 144, 1-(5-fluoropentyl)-N-tricyclo[3.3.1.13,7] dec-1-yl-1H-indole-3-carboxamide] | 2.17
21 | O=C(c1ccc(I)cc1)c1cn(CCCCCF)c2ccccc12 [Example 283, (1-(5-fluoropentyl)-1H-indol-3-yl)(4-iodophenyl)methanone] | 1.46
22 | CC(C)(NC(=O)c1nn(CCCCCF)c2ccccc12)c1ccccc1 [Example 228, 1-(5-fluoropentyl)-N-(1-methyl-1-phenylethyl)-1H-indazole-3-carboxamide] | 1.72

Row | Compound | fold induction at 35 µM
23 | CCCCCn1cc(C(=O)C2C(C)(C)C2(C)C)c2ccccc21 [Example 94, (1-pentyl-1H-indol-3-yl)(2,2,3,3-tetramethylcyclopropyl)-methanone] | 2.45
24 | O=C(Oc1cccc2ccccc12)c1cn(Cc2ccc(F)cc2)c2ccccc12 [Example 248, 1-[(4-fluorophenyl)methyl]-1H-indole-3-carboxylic acid, 1-naphthalenyl ester] | 1.63
25 | O=C(c1cccc(I)c1)c1cn(CCCCCF)c2ccccc12 [Example 130, (1-(5-fluoropentyl)-1H-indol-3-yl)(3-iodophenyl)methanone] | 2.26
26 | O=C(c1cccc2ccccc12)c1nn(CCCCCCl)c2ccccc12 [Example 142, (1-(5-chloropentyl)-1H-indazol-3-yl)(naphthalen-1-yl)methanone] | 2.19
27 | CC(C)[C@H](NC(=O)c1nn(Cc2ccc(F)cc2)c2ccccc12)C(N)=O [Example 172, N-[(1S)-1-(aminocarbonyl)-2-methylpropyl]-1-[(4-fluorophenyl)methyl]-1H-indazole-3-carboxamide] | 1.99
28 | CCC(F)CCCn1cc(C(=O)c2cccc3ccccc23)c2ccccc21 (centres unmarked) [Example 173, (1-(4-fluorohexyl)-1H-indol-3-yl)(naphthalen-1-yl)methanone] | 1.98
29 | O=C(Nc1cccc2ccccc12)c1cn(CCCCCF)c2ccncc12 [Example 373, 1-(5-fluoropentyl)-N-(naphthalen-1-yl)-1H-pyrrolo[3,2-c]pyridine-3-carboxamide] | 0.49
30 | CC1(C)C(C(=O)c2cn(CCCCCBr)c3ccccc23)C1(C)C [Example 222, [1-(5-bromopentyl)-1H-indol-3-yl](2,2,3,3-tetramethylcyclopropyl)-methanone] | 1.76
31 | O=C(NC12CC3CC(CC(C3)C1)C2)c1nn(CC2CCOCC2)c2ccccc12 (single isomer, unassigned) [Example 361, 1-[(tetrahydro-2H-pyran-4-yl)methyl]-N-tricyclo[3.3.1.1^3,7]dec-1-yl-1H-indazole-3-carboxamide] | 0.95
32 | CC(C)(C)n1cc(C(=O)c2cccc3ccccc23)c2ccccc21 [Example 336, (1-(tert-butyl)-1H-indol-3-yl)(naphthalen-1-yl)methanone] | 1.2
33 | CCCCCn1cc(C(=O)c2cccc3cc(CC)ccc23)c2ccccc21 [Example 275, (6-ethylnaphthalen-1-yl)(1-pentyl-1H-indol-3-yl)methanone] | 1.52
34 | CC(C)(C)C(NC(=O)c1cn(Cc2ccccc2)c2ccccc12)C(N)=O (centres unmarked) [Example 186, N-(1-amino-3,3-dimethyl-1-oxobutan-2-yl)-1-benzyl-1H-indole-3-carboxamide] | 1.9
35 | O=C(c1cccc2ccccc12)c1cn(Cc2ccc(F)cc2)c2ccccc12 [Example 220, (1-(4-fluorobenzyl)-1H-indol-3-yl)(naphthalen-1-yl)methanone] | 1.77
36 | CCC(F)CCn1cc(C(=O)C2C(C)(C)C2(C)C)c2ccccc21 (centres unmarked) [Example 133, [1-(3-fluoropentyl)-1H-indol-3-yl] (2,2,3,3-tetramethylcyclopropyl)-methanone] | 2.23
37 | CCCC(Cl)Cn1cc(C(=O)C2C(C)(C)C2(C)C)c2ccccc21 (centres unmarked) [Example 157, (1-(2-chloropentyl)-1H-indol-3-yl)(2,2,3,3-tetramethylcyclopropyl)methanone] | 2.07
38 | CCCCCn1cc(C(=O)Oc2cccc3ncccc23)c2ccccc21 [Example 131, quinolin-5-yl 1-pentyl-1H-indole-3-carboxylate] | 2.26
39 | CCCCCn1cc(C(=O)c2ccccc2OC)c2ccccc21 [Example 20, (2-methoxyphenyl)(1-pentyl-1H-indol-3-yl)-methanone] | 3.98

same assay, conditions: MHC-I expression, COLO 205 cells, compounds at 35 μM, 48 hours, flow cytometry (W6/32)

Row | Compound | Induction Fold [Fold]
40 | CCCCCn1nc(C(=O)c2cccc3ccccc23)c2ccccc21 [Example 149, 1-naphthalenyl(1-pentyl-1H-indazol-3-yl)-methanone] | 2.14
41 | CCCCCn1cc(-c2nc(CN(CC)CC)cs2)c2ccccc21 [Example 366] | 0.89
42 | COC(=O)[C@@H](NC(=O)c1nn(CCCCCF)c2ccccc12)C(C)C [Example 279, N-[[1-(5-fluoropentyl)-1H-indazol-3-yl]carbonyl]-L-valine, methyl ester] | 1.49
43 | O=C(NC12CC3CC(CC(C3)C1)C2)c1nn(CCCCCF)c2ccccc12 [Example 309, N-((3s,5s,7s)-adamantan-1-yl)-1-(5-fluoropentyl)-1H-indazole-3-carboxamide] | 1.37
44 | CCCC(C)(C)c1ccc2c(c1)OC(C)(C)[C@@H]1CC=C(C)C[C@@H]21 [Example 188, 3-(1,1-dimethylbutyl)-6aR,7,10,10aR-tetrahydro-6,6,9-trimethyl-6H-dibenzo[b,d]pyran] | 1.90
